The target in this data set is T1, chymase purified from human skin mast cell (native, Calbiochem) (Homo sapiens, UniProt P23946).
T1 construct: Here, the native is chymase purified from human skin mast cell; purchased Calbiochem; host or cells: human skin mast cell (tissue-derived)
T1 sequence (P23946 22-247): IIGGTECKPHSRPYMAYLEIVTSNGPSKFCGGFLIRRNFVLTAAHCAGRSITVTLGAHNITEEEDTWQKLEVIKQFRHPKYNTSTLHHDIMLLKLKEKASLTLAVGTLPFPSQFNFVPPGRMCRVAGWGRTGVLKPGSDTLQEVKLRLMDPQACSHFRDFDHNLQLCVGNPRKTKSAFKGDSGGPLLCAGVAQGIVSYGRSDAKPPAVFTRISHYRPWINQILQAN
In words: chymase enzyme activity inhibition, native substrate angiotensin I (His-Leu fluorescence). It counts as biochemical. Conditions: angiotensin I as substrate, mean of 2 or 3 measurements. As for the experimental part: A second method of evaluation employs a native substrate. A useful native substrate for chymase is angiotensin I. Here, His-Leu, a peptide fragment released upon degradation of angiotensin I, is fluorescently derivatized, and the fluorescence intensity therefrom is quantified.
In the assay, an enzyme reaction is carried out in 50 μL of solution C. First, 0.3-0.75 ng of chymase (recombinant, manufactured by SIGMA; or native, manufactured by Calbiochem) is diluted in solution C to obtain 5 μL chymase solution. Each nucleic acid is prepared in solution C to obtain 25 μL solutions. 5 μL of each chymase dilution and 25 μL of each nucleic acid solution are mixed, and then the mixture is incubated at 37° C. for 5 minutes. Separately, 20 μL of 125 μM angiotensin I (manufactured by Peptide Institute, Inc.) is prepared in solution C and incubated at 37° C. for 5 minutes. The angiotensin I solution is added to the mixture of chymase and nucleic acid, and the enzyme reaction is initiated. After the reaction was allowed to proceed at 37° C. for 90 minutes, 25 μL of ice-cooled 30% trichloroacetic acid solution is added to terminate the reaction. The entire mixture is centrifuged at 4° C., 14000 rpm for 10 minutes, and 30 μL of the resulting supernatant is used for the subsequent reaction for fluorescent derivatization.
After 30 μL of the supernatant is added to a 96-well plate (Black, manufactured by Costar), 15 μL of 2% o-phthalaldehyde (manufactured by SIGMA) solution in methanol and 170 μL of 0.3M NaOH solution are mixed in each well, and the plate is allowed to stand at room temperature for 10 minutes. Subsequently, 25 μL of 3M HCl solution is added to terminate the reaction. The plate is set to the microplate reader SpectraMax190 (manufactured by Molecular Devices Corporation), and the fluorescence intensity is determined at an excitation wavelength of 355 nm and a fluorescence wavelength of 460 nm.
For control, samples are treated and analyzed in the same manner in two cases: use of SEQ ID NO: 58 (negative control) and use of chymostatin, a known chymotrypsin-like serine protease inhibitor (positive control). In both cases, fluorescence intensity obtained at 0 minute reaction time serves as a blank determination. Taking the fluorescence intensity detected with the addition of an equal volume of solution C, in place of each nucleic acid, in the chymase enzyme reaction as 100%, the inhibitory rate for each test substance is calculated, and the inhibitor concentration required to cause a 50% inhibition of the enzyme activity (IC50) is determined.
Whether the nucleic acids shown by SEQ ID NO: 9 and 10 inhibit the enzyme activity of chymase was determined by the following method. Angiotensin I is converted by chymase to angiotensin II, during which a peptide fragment His-Leu is released. Since the peptide His-Leu is fluorescently derivatized by o-phthalaldehyde, its fluorescence intensity can be quantitatively measured.
The total volume of solution for an enzyme reaction in the assay was set to 50 μL, and the reaction was performed in solution C buffer. At first, native (manufactured by Calbiochem) was diluted with solution C to give 5 μL thereof. Here, the native is chymase purified from human skin mast cell. The nucleic acid was serially diluted with solution C at a concentration of 0.0027-2 μM to give 25 μL thereof. The chymase solution (5 μL) and the nucleic acid solution (25 μL) were mixed, and the mixture was incubated at 37° C. for 5 min. On the other hand, […] angiotensin I (manufactured by PEPTIDE INSTITUTE, INC.) was prepared in solution C to give 20 μL thereof, which was incubated at 37° C. for 5 min. The angiotensin I solution was added to a mixture of chymase and nucleic acid to start an enzyme reaction. The final chymase concentration of the reaction solution was 0.5 nM, and the final substrate concentration was 50 μM. […]

[1] abbreviates: Table 3, >1 = no inhibitory activity up to 1 μM.

One may read the IC50 as the concentration that gives 50% inhibition. For the substance “17(16) (GAUGAUCGGACAUAACAUUGUUGGGGUGUCAA; aptamer; 2'-O-methyl, idT end and other modifications, positions not given here)”, it took 0.18 nM to reach half-maximal inhibition (Table 4) (IC50). In other words, the sub-nanomolar range. For “17(17) (GAUGAUCGGACAUAACAUUGUUGGGGUGUCAA; aptamer; 2'-O-methyl, idT end and other modifications, positions not given here)”, the IC50 (Table 4) came out at 0.19 nM. The same measure, in the same setting: then “17(18) (GAUGAUCGGACAUAACAUUGUUGGGGUGUCAA; aptamer; 2'-O-methyl, idT end and other modifications, positions not given here)”, with 0.15 nM. “17(19) (GAUGAUCGGACAUAACAUUGUUGGGGUGUCAA; aptamer; 2'-O-methyl, idT end and other modifications, positions not given here)” yielded an IC50 (Table 4) of 0.19 nM. Still for that read-out and setting: the same measure for “17(20) (GAUGAUCGGACAUAACAUUGUUGGGGUGUCAA; aptamer; 2'-O-methyl, idT end and other modifications, positions not given here)”: 0.18 nM; for “17(21) (GAUGAUCGGACAUAACAUUGUUGGGGUGUCAA; aptamer; 2'-O-methyl, idT end and other modifications, positions not given here)”: 0.19 nM; for “17(22) (GAUGAUCGGACAUAACAUUGUUGGGGUGUCAA; aptamer; 2'-O-methyl, idT end and other modifications, positions not given here)”: 0.17 nM. The same measure, in the same setting: the same measure for “17(23) (GAUGAUCGGACAUAACAUUGUUGGGGUGUCAA; aptamer; 2'-O-methyl, idT end and other modifications, positions not given here)”: 0.16 nM. For “17(24) (GAUGAUCGGACAUAACAUUGUUGGGGUGUCAA; aptamer; 2'-O-methyl, idT end and other modifications, positions not given here)”, the IC50 (Table 4) is 0.19 nM. With “17(25) (GAUGAUCGGACAUAACAUUGUUGGGGUGUCAA; 2'-O-methyl, idT end and other modifications, positions not given here)”, 0.2 nM corresponded to half-maximal inhibition (Table 4) (IC50). As to “18 (UGAUCGGACAUAACAUUGUUGGGGUGUCAA; 2'-fluoro at CU, RNA at AG, backbone not given here) [compound 18]”, under setting [1], the IC50 was 2.1 nM. This counts as single-digit nanomolar.

Under setting [1], “19 (AUCGGACAUAACAUUGUUGGGGUGUCAA; 2'-fluoro at CU, RNA at AG, backbone not given here) [compound 19]” gave an IC50 of 14.4 nM. Substance “20 (GAUGAUCGGACAUAACAUUGUUGGGGUGUCA; 2'-fluoro at CU, RNA at AG, backbone not given here) [compound 20]” returned an IC50 under setting [1] of 1.8 nM. “33 (AUGAUCGGACAUAACUAAUUAGGGGUGUCAA; aptamer; listed as RNA, chemistry not fully specified) [compound 33]”: half-maximal inhibition (Table 6) (IC50) required 0.21 nM. Same read-out and setting: the same measure for “33(1) (AUGAUCGGACAUAACUAAUUAGGGGUGUCAA; aptamer; modified variant with 2'-O-methyl and end modifications, pattern not given here)”: 0.074 nM. Same read-out and setting: the same measure for “33(2) (AUGAUCGGACAUAACUAAUUAGGGGUGUCAA; aptamer; modified variant with 2'-O-methyl and end modifications, pattern not given here)”: 0.078 nM.

Where the note is “Table 6”, “33(3) (AUGAUCGGACAUAACUAAUUAGGGGUGUCAA; aptamer; modified variant with 2'-O-methyl and end modifications, pattern not given here)” yielded an IC50 of 0.071 nM. Take “33(4) (AUGAUCGGACAUAACUAAUUAGGGGUGUCAA; aptamer; modified variant with 2'-O-methyl and end modifications, pattern not given here)”: the IC50 (Table 6) is 0.072 nM.

For the setting “Table 6”, “33(5) (AUGAUCGGACAUAACUAAUUAGGGGUGUCAA; aptamer; modified variant with 2'-O-methyl and end modifications, pattern not given here)” had an IC50 of 0.076 nM. Still for that read-out and setting: the same measure for “33(6) (AUGAUCGGACAUAACUAAUUAGGGGUGUCAA; aptamer; modified variant with 2'-O-methyl and end modifications, pattern not given here)”: 0.053 nM; for “33(7) (AUGAUCGGACAUAACUAAUUAGGGGUGUCAA; aptamer; modified variant with 2'-O-methyl and end modifications, pattern not given here)”: 0.071 nM; for “33(8) (AUGAUCGGACAUAACUAAUUAGGGGUGUCAA; aptamer; modified variant with 2'-O-methyl and end modifications, pattern not given here)”: 0.061 nM.

In turn, “33(9) (AUGAUCGGACAUAACUAAUUAGGGGUGUCAA; listed as RNA, chemistry not fully specified)” displayed an IC50 (Table 6) of 1.35 nM. Still for that read-out and setting: then “33(10) (AUGAUCGGACAUAACUAAUUAGGGGUGUCAA; aptamer; modified variant with 2'-O-methyl and end modifications, pattern not given here)”, with 0.071 nM; and “33(11) (AUGAUCGGACAUAACUAAUUAGGGGUGUCAA; aptamer; modified variant with 2'-O-methyl and end modifications, pattern not given here)”, with 0.051 nM.

For “33(12) (AUGAUCGGACAUAACUAAUUAGGGGUGUCAA; modification pattern variant (12), chemistry not fully specified)”, for the setting “Table 6”, the IC50 is 0.048 nM. “33(13) (AUGAUCGGACAUAACUAAUUAGGGGUGUCAA; aptamer; modified variant with 2'-O-methyl and end modifications, pattern not given here)” showed an IC50 (Table 6) of 0.069 nM. For the setting “Table 6”, “33(14) (AUGAUCGGACAUAACUAAUUAGGGGUGUCAA; aptamer; modified variant with 2'-O-methyl and end modifications, pattern not given here)” registered an IC50 of 0.075 nM. As to “33(15) (AUGAUCGGACAUAACUAAUUAGGGGUGUCAA; aptamer; modified variant with 2'-O-methyl and end modifications, pattern not given here)”, for the setting “Table 6”, the midpoint of inhibition, the IC50, lay at 0.072 nM. Still for that read-out and setting: then “33(16) (AUGAUCGGACAUAACUAAUUAGGGGUGUCAA; aptamer; modified variant with 2'-O-methyl and end modifications, pattern not given here)”, with 0.063 nM; and “33(17) (AUGAUCGGACAUAACUAAUUAGGGGUGUCAA; aptamer; modified variant with 2'-O-methyl and end modifications, pattern not given here)”, with 0.038 nM.

Source of the values: US11639503B2, “Anti-chymase aptamer and use for same” (RIBOMIC INC., priority 2017, dated 2023).
